Patent EP0581464A1, “Ester derivatives and pharmaceutical compositions containing them” (ZENECA LIMITED, priority 1992, dated 1994)

Biological target: T1, 5-LO (Homo sapiens, UniProt P09917)
T1 construct: incubating a test compound with heparinised human blood, prior to challenge with the calcium ionophore A23187; endogenous in cells; host or cells: human whole blood (blood cells)
T1 sequence (P09917 1-674): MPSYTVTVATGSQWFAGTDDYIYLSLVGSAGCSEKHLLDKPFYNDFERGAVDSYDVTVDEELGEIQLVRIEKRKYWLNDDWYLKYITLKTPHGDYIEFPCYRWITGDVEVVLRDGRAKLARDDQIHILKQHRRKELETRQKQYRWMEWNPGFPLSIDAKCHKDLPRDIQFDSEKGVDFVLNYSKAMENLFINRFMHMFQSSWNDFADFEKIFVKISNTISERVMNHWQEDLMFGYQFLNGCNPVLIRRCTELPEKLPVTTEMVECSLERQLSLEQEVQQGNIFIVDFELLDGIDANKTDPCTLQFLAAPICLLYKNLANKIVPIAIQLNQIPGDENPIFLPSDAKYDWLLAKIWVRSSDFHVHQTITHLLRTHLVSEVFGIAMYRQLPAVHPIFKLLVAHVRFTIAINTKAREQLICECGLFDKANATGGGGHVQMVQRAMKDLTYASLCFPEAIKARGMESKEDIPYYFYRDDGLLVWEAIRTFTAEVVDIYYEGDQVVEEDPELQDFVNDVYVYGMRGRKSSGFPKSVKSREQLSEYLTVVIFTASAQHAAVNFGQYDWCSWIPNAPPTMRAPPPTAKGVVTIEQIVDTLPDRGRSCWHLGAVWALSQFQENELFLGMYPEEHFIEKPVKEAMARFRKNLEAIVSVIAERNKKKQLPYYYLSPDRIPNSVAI
Assay: Test a): in vitro heparinised human blood challenged with calcium ionophore A23187, radioimmunoassay of LTB4
Format: cell-based
Conditions: A23187 challenge, read-out: IC50 against LTB4 in test (a)
Text: As stated previously, the compounds of the formula I are inhibitors of the enzyme 5-LO. […] J. Pharmacol. 1985, 84, 34P) which involve the use of a protein-LTB4 conjugate produced using the procedure of Young et alia (Prostaglandins, 1983, 26(4), 605-613). The effects of a test compound on the enzyme cyclooxygenase (which is involved in the alternative metabolic pathway for arachidonic acid and gives rise to prostaglandins, thromboxanes and related metabolites) may be measured at the same time using the specific radioimmunoassay for thromboxane B2(TxB2) described by Carey and Forder (see above). This test provides an indication of the effects of a test compound against 5-LO and also cyclooxygenase in the presence of blood cells and proteins. It permits the selectivity of the inhibitory effect on 5-LO or cyclooxygenase to be assessed. • b) An ex vivo assay system, which is a variation of test a) above, involving administration to a group of rats of a test compound (usually orally as the suspension produced when a solution of the test compound in dimethylsulphoxide is added to carboxymethylcellulose), blood collection, heparinisation, challenge with A23187 and radioimmunoassay of LTB4 and TxB2. […]

Row | Structure (SMILES) | IC50 [µM]
1 | COC1(/C(N)=C/C(=O)OCc2ccc3ccccc3c2)CCOCC1 [Example 1, naphth-2-ylmethyl (Z)-3-amino-3-(4-methoxytetrahydropyran-4-yi)prop-2-enoate] | 0.07
2 | CO/N=C(\C)c1ccc(COC(=O)/C=C(\N)C2(OC)CCOCC2)cc1 [Example 2, 4-[(E)-1-methoxyiminoethyl]benzyl (Z)-3-amino-3-(4-methoxytetrahydropyran-4-yl)prop-2-enoate] | 9.36
